Assay results as given in patent US11207303B2, “Therapeutic agent for fibrodysplasia ossificans progressiva” (Kyoto University, priority 2015, dated 2021).

System: mesenchymal stem cell-like cells derived from iPS cells established from a FOP patient (ACVR1 R206H)
Experiment: Activin-A-induced chondrogenic differentiation of FOP patient-derived cells (sulfated glycosaminoglycan quantification)
Assay type: cell-based
Conditions: 100 ng/mL human activin-A, compound 0.01 to 100 nM, six days, P<0.0001 at 0.1-100 nM rapamycin, 1-100 nM everolimus or temsirolimus vs activin-A only
Text: According to the method of Yamanaka et. al., (Cell, 2007, 131 (5), […]), iPS cells derived from a FOP patient (referred to as “patient-derived iPS cells” in some cases hereafter) were established. […] This mutation is a mutation that replaces the 206th arginine residue into a histidine residue in the amino acid sequence of ACVR1 (the amino acid sequence as set forth in SEQ ID NO:2). In addition, with a view toward using as a control, the mutation of the ACVR1 gene described above was corrected to the normal type (the wild type) by the gene correction with a BAC (Bacterial Artificial Chromosome) knock-in vector, thus establishing corrected iPS cells which may be referred to as “gene-corrected (rescued) iPS cell clone” in some cases hereafter.
The patient-derived iPS cells were cultured on a Matrigel coated plate [manufactured by Becton, Dickinson and Company; trade name, Growth Factor Reduced (GFR) BD MATRIGEL (registered trademark)] in mTeSR1 (manufactured by STEMCELL Technologies Inc.) under a feeder-free condition for two days. […]
These mesenchymal stem cell-like cells were cultured under a condition of a chondrogenic induction medium according to the method of Umeda (Sci. Rep, 2012, 2, 455) for six days and differentiated into chondrocytes. […] Also, compounds for which their inhibitory effect against the chondrogenic differentiation were to be evaluated (concentrations of from 0.01 to 100 nM) were added simultaneously with human activin-A (referred to as “activin-A” in some cases hereafter). […] The degree of differentiation into chondrocytes was measured with a quantification kit for sulfated glycosaminoglycan (manufactured by Biocolor Inc.; trade name, Blyscan Glycosaminoglycan Assay Kit). […]

SMILES	chondrogenic differentiation (amount of sulfated glycosaminoglycan)
CO[C@H]1C[C@@H]2CC[C@@H](C)[C@@](O)(O2)C(=O)C(=O)N2CCCC[C@H]2C(=O)O[C@H]([C@H](C)C[C@@H]2CC[C@@H](OP(C)(C)=O)[C@H](OC)C2)CC(=O)[C@H](C)/C=C(\C)[C@@H](O)[C@@H](OC)C(=O)[C@H](C)C[C@H](C)/C=C/C=C/C=C/1C [ridaforolimus]	suppressed the chondrogenic differentiation
CO[C@H]1C[C@@H]2CC[C@@H](C)[C@@](O)(O2)C(=O)C(=O)N2CCCC[C@H]2C(=O)O[C@H]([C@H](C)C[C@@H]2CC[C@@H](OC(=O)C(C)(CO)CO)[C@H](OC)C2)CC(=O)[C@H](C)/C=C(\C)[C@@H](O)[C@@H](OC)C(=O)[C@H](C)C[C@H](C)/C=C/C=C/C=C/1C [temsirolimus]	suppressed the chondrogenic differentiation
CO[C@H]1C[C@@H]2CC[C@@H](C)[C@@](O)(O2)C(=O)C(=O)N2CCCC[C@H]2C(=O)O[C@H]([C@H](C)C[C@@H]2CC[C@@H](OCCO)[C@H](OC)C2)CC(=O)[C@H](C)/C=C(\C)[C@@H](O)[C@@H](OC)C(=O)[C@H](C)C[C@H](C)/C=C/C=C/C=C/1C [everolimus]	suppressed the chondrogenic differentiation
